Consider ten compounds from US10538554B2, “Peptides and uses therefor as antiviral agents” (priority 2015, dated 2020).

One experiment deals with H9N2 A/Iran/16/2000. To be noted: 48 h.
The subject of a further experiment is H3N8 A/Miami/2/63. The following applies: A/Miami/2/63, 48 h.
The test system of experiment [1] is H1N1 A1/Malaysia/302/1954. The following applies: A1/Malaysia/302/1954, 48 h.
The next experiment relates to H3N2 A/HK/8/1968. The following applies: A/HK/8/1968, 48 h.

Read-outs that look alike come from different tables or passages of the source. Bridge positions count the residues as written; N and C are the ends. Square brackets hold non-standard residues; d marks the D form. Peptide text beside a SMILES is read from it.

For `CC[C@@H](C)[C@H]1NC(=O)[C@@H](Cc2ccccc2)NC(=O)[C@@H](CCCNC(=N)N)NC(=O)[C@H]2CCCN2C(=O)[C@@H](Cc2c[nH]c3ccccc23)NC(=O)[C@@H]([C@H](C)O)NC(=O)[C@H](NC(=O)[C@H](CCCCN)NC(=O)[C@H](CCCCN)NC(=O)[C@H](CCCNC(=N)N)NC(=O)[C@@H](N)CCCNC(=N)N)CSSC[C@H](C(=O)O)NC(=O)[C@@H](CC(N)=O)NC1=O` [PSP III B13, H-RRKKctwprfinc-OH] (H-RRKK[dC][dT][dW][dP][dR][dF][dI][dN][dC]-OH; disulfide 5-13), in the experiment with H9N2 A/Iran/16/2000 (50 μM), the “% inhibition H9N2” value is given as 79%. Also, the “% inhibition H3N8” value in the experiment with H3N8 A/Miami/2/63 (50 μM) worked out at 83%. Also, the “% inhibition H1N1” value in experiment [1] (50 μM) worked out at 63%. The “% inhibition H3N2” value in the experiment with H3N2 A/HK/8/1968 (50 μM) stood at 96%.

With `CC[C@@H](C)[C@H]1NC(=O)[C@@H](Cc2ccccc2)NC(=O)[C@@H](CCCNC(=N)N)NC(=O)[C@@H](Cc2c[nH]c3ccccc23)NC(=O)[C@@H](Cc2c[nH]c3ccccc23)NC(=O)[C@@H]([C@H](C)O)NC(=O)[C@H](NC(=O)[C@H](CCCCN)NC(=O)[C@H](CCCCN)NC(=O)[C@H](CCCNC(=N)N)NC(=O)[C@@H](N)CCCNC(=N)N)CSSC[C@H](C(=O)O)NC(=O)[C@@H](CC(N)=O)NC1=O` [PSP III B19, H-RRKKctwwrfinc-OH] (H-RRKK[dC][dT][dW][dW][dR][dF][dI][dN][dC]-OH; disulfide 5-13), the “% inhibition H9N2” value with H9N2 A/Iran/16/2000 (50 μM) is on record as 97%. The “% inhibition H3N8” value with H3N8 A/Miami/2/63 (50 μM) is given as 100%. Besides, in experiment [1] (50 μM), the “% inhibition H1N1” value came out at 94%. The “% inhibition H3N2” value in the experiment with H3N2 A/HK/8/1968 (50 μM) came out at 100%.

Regarding `CC[C@@H](C)[C@H]1NC(=O)[C@@H](Cc2ccccc2)NC(=O)[C@@H](CCCNC(=N)N)NC(=O)[C@@H]([C@H](C)O)NC(=O)[C@@H](Cc2c[nH]c3ccccc23)NC(=O)[C@@H]([C@H](C)O)NC(=O)[C@H](NC(=O)[C@H](CCCCN)NC(=O)[C@H](CCCCN)NC(=O)[C@H](CCCNC(=N)N)NC(=O)[C@@H](N)CCCNC(=N)N)CSSC[C@H](C(=O)O)NC(=O)[C@@H](CC(N)=O)NC1=O` [PSP III B17, H-RRKKctwtrfinc-OH] (H-RRKK[dC][dT][dW][dT][dR][dF][dI][dN][dC]-OH; disulfide 5-13), the “% inhibition H9N2” value in the experiment on H9N2 A/Iran/16/2000 (50 μM) amounted to 86%. Also, the “% inhibition H3N8” value in the experiment with H3N8 A/Miami/2/63 (50 μM) amounted to 96%. The “% inhibition H1N1” value in experiment [1] (50 μM) is given as 79%. Moreover, the “% inhibition H3N2” value with H3N2 A/HK/8/1968 (50 μM) worked out at 96%.

With `C[C@H](O)[C@H]1NC(=O)[C@H](N)CSSC[C@H](C(=O)O)NC(=O)[C@@H](CC(N)=O)NC(=O)[C@@H](Cc2ccc(O)cc2)NC(=O)[C@@H](Cc2ccccc2)NC(=O)[C@@H](CCCNC(=N)N)NC(=O)[C@@H](CO)NC(=O)[C@@H](CCCCN)NC1=O` [PSP 20, H-ctksrfync-OH] (H-[dC][dT][dK][dS][dR][dF][dY][dN][dC]-OH; disulfide 1-9), the “% inhibition H9N2” value in the experiment with H9N2 A/Iran/16/2000 (500 μM) was 63.6%. In the experiment with H3N8 A/Miami/2/63 (500 μM), the “% inhibition H3N8” value turned out to be 81.4%. Further, the “% inhibition H1N1” value in experiment [1] (500 μM) was 73.5%. Also, the “% inhibition H3N2” value in the experiment with H3N2 A/HK/8/1968 (500 μM) is on record as 95.5%.

Take `CC[C@@H](C)[C@H]1NC(=O)[C@@H](Cc2ccccc2)NC(=O)[C@@H](CCCNC(=N)N)NC(=O)[C@@H](CC(=O)O)NC(=O)[C@@H](Cc2c[nH]c3ccccc23)NC(=O)[C@@H]([C@H](C)O)NC(=O)[C@H](NC(=O)[C@H](CCCCN)NC(=O)[C@H](CCCCN)NC(=O)[C@H](CCCNC(=N)N)NC(=O)[C@@H](N)CCCNC(=N)N)CSSC[C@H](C(=O)O)NC(=O)[C@@H](CC(N)=O)NC1=O` [PSP III B3, H-RRKKctwdrfinc-OH] (H-RRKK[dC][dT][dW][dD][dR][dF][dI][dN][dC]-OH; disulfide 5-13): the “% inhibition H9N2” value in the experiment with H9N2 A/Iran/16/2000 (50 μM) was 20%. In addition, the “% inhibition H3N8” value in the experiment with H3N8 A/Miami/2/63 (50 μM) was found to be 43%. Besides, the “% inhibition H1N1” value in experiment [1] (50 μM) is listed as 12%. Moreover, the “% inhibition H3N2” value with H3N2 A/HK/8/1968 (50 μM) is 83%.

As to `C[C@H](O)[C@H]1NC(=O)[C@H](N)CSSC[C@H](C(=O)O)NC(=O)[C@@H](CC(N)=O)NC(=O)[C@@H](C)NC(=O)[C@@H](Cc2ccccc2)NC(=O)[C@@H](CCCNC(=N)N)NC(=O)[C@@H](CO)NC(=O)[C@@H](CCCCN)NC1=O` [PSP 1, H-ctksrfanc-OH] (H-[dC][dT][dK][dS][dR][dF][dA][dN][dC]-OH; disulfide 1-9), in the experiment with H9N2 A/Iran/16/2000 (500 μM), the “% inhibition H9N2” value was 36.4%. The “% inhibition H3N8” value in the experiment on H3N8 A/Miami/2/63 (500 μM) was 79.4%. For the same compound, in experiment [1] (500 μM), the “% inhibition H1N1” value was found to be 29.4%. Moreover, the “% inhibition H3N2” value in the experiment on H3N2 A/HK/8/1968 (500 μM) was 70.4%.

As to `CC[C@@H](C)[C@H]1NC(=O)[C@@H](Cc2ccccc2)NC(=O)[C@@H](CCCNC(=N)N)NC(=O)[C@@H](CCSC)NC(=O)[C@@H](Cc2c[nH]c3ccccc23)NC(=O)[C@@H]([C@H](C)O)NC(=O)[C@H](NC(=O)[C@H](CCCCN)NC(=O)[C@H](CCCCN)NC(=O)[C@H](CCCNC(=N)N)NC(=O)[C@@H](N)CCCNC(=N)N)CSSC[C@H](C(=O)O)NC(=O)[C@@H](CC(N)=O)NC1=O` [PSP III B11, H-RRKKctwmrfinc-OH] (H-RRKK[dC][dT][dW][dM][dR][dF][dI][dN][dC]-OH; disulfide 5-13), in the experiment on H9N2 A/Iran/16/2000 (50 μM), the “% inhibition H9N2” value is 93%. In addition, the “% inhibition H3N8” value in the experiment on H3N8 A/Miami/2/63 (50 μM) is reported as 96%. Moreover, the “% inhibition H1N1” value in experiment [1] (50 μM) is on record as 94%. Moreover, the “% inhibition H3N2” value in the experiment with H3N2 A/HK/8/1968 (50 μM) is reported as 100%.

With `CC(C)C[C@H]1NC(=O)[C@@H](Cc2ccccc2)NC(=O)[C@@H](CCCNC(=N)N)NC(=O)[C@@H](CO)NC(=O)[C@@H](CCCCN)NC(=O)[C@@H]([C@H](C)O)NC(=O)[C@H](N)CSSC[C@H](C(=O)O)NC(=O)[C@@H](CC(N)=O)NC1=O` [PSP 10, H-ctksrflnc-OH] (H-[dC][dT][dK][dS][dR][dF][dL][dN][dC]-OH; disulfide 1-9), in the experiment with H9N2 A/Iran/16/2000 (500 μM), the “% inhibition H9N2” value was 50%. Further, the “% inhibition H3N8” value in the experiment with H3N8 A/Miami/2/63 (500 μM) is 82.5%. In addition, the “% inhibition H1N1” value in experiment [1] (500 μM) is on record as 88.2%. In the experiment on H3N2 A/HK/8/1968 (500 μM), the “% inhibition H3N2” value is on record as 95.5%.

Turning to `CC[C@@H](C)[C@H]1NC(=O)[C@@H](Cc2ccccc2)NC(=O)[C@@H](CCCNC(=N)N)NC(=O)[C@@H](C)NC(=O)[C@@H](Cc2c[nH]c3ccccc23)NC(=O)[C@@H]([C@H](C)O)NC(=O)[C@H](NC(=O)[C@H](CCCCN)NC(=O)[C@H](CCCCN)NC(=O)[C@H](CCCNC(=N)N)NC(=O)[C@@H](N)CCCNC(=N)N)CSSC[C@H](C(=O)O)NC(=O)[C@@H](CC(N)=O)NC1=O` [PSP III B1, H-RRKKctwarfinc-OH] (H-RRKK[dC][dT][dW][dA][dR][dF][dI][dN][dC]-OH; disulfide 5-13), in the experiment with H9N2 A/Iran/16/2000 (50 μM), the “% inhibition H9N2” value was 95%. In addition, the “% inhibition H3N8” value in the experiment with H3N8 A/Miami/2/63 (50 μM) was found to be 96%. Also, the “% inhibition H1N1” value in experiment [1] (50 μM) was determined as 85%. Besides, the “% inhibition H3N2” value in the experiment with H3N2 A/HK/8/1968 (50 μM) was 92%.

For `C[C@H](O)[C@H]1NC(=O)[C@H](N)CSSC[C@H](C(=O)O)NC(=O)[C@@H](CC(N)=O)NC(=O)[C@H]2CCCN2C(=O)[C@@H](Cc2ccccc2)NC(=O)[C@@H](CCCNC(=N)N)NC(=O)[C@@H](CO)NC(=O)[C@@H](CCCCN)NC1=O` [PSP 13, H-ctksrfpnc-OH] (H-[dC][dT][dK][dS][dR][dF][dP][dN][dC]-OH; disulfide 1-9), the “% inhibition H9N2” value in the experiment on H9N2 A/Iran/16/2000 (500 μM) stood at 18.2%. The “% inhibition H3N8” value with H3N8 A/Miami/2/63 (500 μM) was 70.1%. In addition, the “% inhibition H1N1” value in experiment [1] (500 μM) is listed as 32.7%. In the experiment on H3N2 A/HK/8/1968 (500 μM), the “% inhibition H3N2” value is recorded as 29.6%.
